From patent publication US20250228858A1, “ANTI-CANCER COMBINATION THERAPY” (Boehringer Ingelheim International GmbH, priority 2023, published 2025)

Tests used:
[1] = system: HER2-overexpressing human ovarian cell line SK-OV-3; assay: SK-OV-3 subcutaneous xenograft, zongertinib with T-DXd; type: in vivo, NMRI-Foxn1^nu mice
Experimental: The study is performed in human ovarian cancer cell line SK-OV-3 grown as subcutaneous xenografts in NMRI-Foxn1^nu mice. Day 1 was the first day, day 20 the last day of treatment and final day of analysis.
SK-OV-3 is a HER2-overexpressing human ovarian cancer cell line that can be obtained from ATCC (lot HTB-77). Cells are cultured in T75, T175 and 5-Layer tissue culture flasks at 37° C. and 5% CO2. The medium used is IMDM (PAN-Biotech, #P04-200150) supplemented with 10% FCS (Cytiva HyClone Characterized FBS, SH30084.03n). Cultures are split twice weekly with a ratio of 1:2-1:3.
To establish subcutaneous tumors, SK-OV-3 cells are harvested by centrifugation, washed and resuspended in PBS+5% FCS at 5×10^7 cells/ml. 100 μl cell suspension containing 5×10^6 cells is injected subcutaneously into the right flank of mice (1 site per mouse).
Apart from this, statistical analysis was performed as described in Example 1 (see paragraph 1.1.7), with no evaluation of tumor growth after stop of treatment.

[2] = system: HER2-overexpressing human breast cancer cell line HCC1954; type: in vivo; conditions: zongertinib 20 mg/kg qdx21 p.o., T-DXd 1 mg/kg q21dx1 i.v., pertuzumab 20 mg/kg q7dx3 i.p., alone or combined
Experimental: Day 1 was the first day, day 21 the last day of treatment and final day of analysis.
Cells are cultured in T75, T175 and 5-Layer tissue culture flasks at 37° C. and 5% CO2.
The statistical evaluation of the tumor volume and the body weight is conducted on day 21 (last day of the study). Apart from this, statistical analysis was performed as described in Example 1 (see paragraph 1.1.7), with no evaluation of tumor growth after stop of treatment.

[3] = system: T-DXd-resistant NCI-N87 cells; assay: Proliferation assay (CellTiter Glo), T-DXd resistant NCI-N87 cells; type: cell-based, human; conditions: 5 days of incubation, in vitro
Experimental: Per well, 1000 cells are seeded in 40 μL medium in white, sterile 384-well culture plates (TC-treated; PerkinElmer #6007680) and incubated overnight in a humidified incubator at 37° C. and 5% CO2. 0.1% DMSO-control or serial compound dilution in triplicates are added. […] After 5 days of incubation with test compounds, the cells plates are measured upon addition of CellTiter Glo Luminescent Cell Viability Reagent (Promega, #G9243) to assess cell viability. The plates are placed on a shaker for five minutes and additionally incubated for 10 minutes at room temperature to induce cell lysis and to stabilize the luminescent signal. The luminescent signal of each well is measured in an EnSpire Multilabel Plate Reader 658 (PerkinElmer). The dose response curves are fit and visualized using Boehringer Ingelheim's proprietary software MegaLab and PRISM (GraphPad Inc.).

C=CC(=O)NC1CCN(c2ncc3ncnc(Nc4ccc(Oc5ccc6c(c5)ncn6C)c(C)c4)c3n2)CC1 [Zongertinib, N-{1-[8-({3-methyl-4-[(1-methyl-1H-1,3-benzodiazol-5-yl)oxy]phenyl}amino)-[1,3]diazino [5,4-d]pyrimidin-2-yl]piperidin-4-yl}prop-2-enamide]
TGI ([1]; day 15, zongertinib 10 mg/kg qdx20 p.o., T-DXd 7 mg/kg q21dx1 i.v., alone or combined): 91%
Regressions >30% ([1]; day 20, tumors regressed/total (partial response), zongertinib 10 mg/kg qdx20 p.o., T-DXd 7 mg/kg q21dx1 i.v., alone or combined): 0/8
stable diseases ([1]; day 20, zongertinib 10 mg/kg qdx20 monotherapy): 2 out of 8
TGI ([2]; day 21): 68%
Regressions >30% ([2]; tumors regressed/total (partial response)): 0/8
difference in IC50 between parental and T-DXd-resistant NCI-N87 cells [3]: less than 10 fold
sensitivity (dose response, cell viability) [3]: sensitive
